Measured values from ChEMBL document CHEMBL4699662, “Identification and structure-activity relationship studies of small molecule inhibitors of the human cathepsin D” (Bioorg Med Chem, 2021).

Legend:
[1] = target: Cathepsin D (Homo sapiens) (UniProt P07339); details: dose 182.0 nM, time 130.0 min
in vitro [2] = details: human, liver microsomes
in vitro [3] = details: mouse, liver microsomes

Chain of Cathepsin D (Homo sapiens) (P07339 65-162 limits assumed): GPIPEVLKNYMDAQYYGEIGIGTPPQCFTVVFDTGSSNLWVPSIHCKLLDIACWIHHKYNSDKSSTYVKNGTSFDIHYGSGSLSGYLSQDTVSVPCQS
Chain of Cathepsin D (Homo sapiens) (P07339 169-412 limits assumed): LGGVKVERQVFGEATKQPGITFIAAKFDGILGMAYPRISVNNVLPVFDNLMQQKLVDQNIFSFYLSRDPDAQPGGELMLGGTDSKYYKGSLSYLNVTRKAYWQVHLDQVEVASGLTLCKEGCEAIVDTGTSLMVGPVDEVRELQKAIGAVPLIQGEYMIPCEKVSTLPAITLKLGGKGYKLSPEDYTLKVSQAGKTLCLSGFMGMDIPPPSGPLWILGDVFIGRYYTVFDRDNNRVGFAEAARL

inhibition [1]	microsomal CLint at 0.5 h, 1 µM (in vitro [2])	microsomal CLint at 0.5 h, 1 µM (in vitro [3])	SMILES
98.7%			CC(C)CC(=O)N[C@H](C(=O)N[C@H](C(=O)N[C@@H](CC(C)C)[C@@H](O)CC(=O)N[C@@H](C)C(=O)N[C@@H](CC(C)C)[C@@H](O)CC(=O)O)C(C)C)C(C)C
	64.3 µL/min/mg	174 µL/min/mg	COc1ccc(CC(=O)NC(=N)N[C@@H](C(=O)Nc2cc(S(N)(=O)=O)ccc2C)C(C)C)cc1OC
	215 µL/min/mg	231 µL/min/mg	CCCC[C@@H](NC(=N)NC(=O)Cc1ccc(OC)c(OC)c1)C(=O)Nc1cc(S(N)(=O)=O)ccc1C
	239 µL/min/mg	188 µL/min/mg	CNS(=O)(=O)c1ccc(C)c(NC(=O)[C@@H](CC(C)C)NC(=N)NC(=O)Cc2ccc(OC)c(OC)c2)c1
	212 µL/min/mg	212 µL/min/mg	CNS(=O)(=O)c1ccc(C)c(NC(=O)[C@@H](CC2CCCCC2)NC(=N)NC(=O)Cc2cc(Cl)cc(OC)c2)c1
	169 µL/min/mg	200 µL/min/mg	Cc1ccc(S(=O)(=O)N(C)C)cc1NC(=O)[C@@H](CC1CCCCC1)NC(=N)NC(=O)Cc1ccc2ccccc2c1
	221 µL/min/mg	227 µL/min/mg	CCN(CC)S(=O)(=O)c1ccc(C)c(NC(=O)[C@@H](CC2CCCCC2)NC(=N)NC(=O)Cc2ccc(OC)c(OC)c2)c1
	188 µL/min/mg	215 µL/min/mg	CNS(=O)(=O)c1ccc(C)c(NC(=O)[C@@H](CC2CCCCC2)NC(=N)NC(=O)Cc2ccc(OC)c(C(F)(F)F)c2)c1
